According to the supplement of paper PMC6965134:
± gives the standard deviation of the averaged measurements.

Experiment: TIMS collisional cross section (CCS, N2) of the lipid ion; higher = larger ion cross section
Conditions: ionization mode: positive, one isomer drawn
Method: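 Lipid extracts of human plasma (NIST SRM 1950), mouse liver and HeLa cells were separated by nanoflow C18 LC (30 min gradient, 60 °C) and analysed by TIMS-PASEF on a timsTOF Pro in positive ion mode. Ion mobility was calibrated with the Agilent tuning mix and converted to collisional cross sections (Mason–Schamp) in N2 drift gas. Lipids were identified by MS/MS (SimLipid) and manual curation. SMILES are LIPID MAPS representative structures for the annotated lipid.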

| TIMS collisional cross section (sample type: HeLa) | TIMS collisional cross section (sample type: Liver) | TIMS collisional cross section (sample type: plasma) | Compound |
| --- | --- | --- | --- |
| 329.5 Å² | – | – | CC/C=C\C/C=C\C/C=C\C/C=C\C/C=C\C/C=C\CCC(=O)OC[C@@H](COC(=O)CCCCCCC/C=C\CCCCCC)OC(=O)CC/C=C\C/C=C\C/C=C\C/C=C\C/C=C\C/C=C\CC [TG 16:1_22:6_22:6] (ion (formula + adduct): [C63H96O6+NH4] 1+) |
| 266.6 Å² | 270 Å² | – | CC/C=C\C/C=C\C/C=C\C/C=C\C/C=C\CCCCCC(=O)O[C@@H](CO)COC(=O)CCCCCCCCCCCCCCC [DG 16:0_22:5_0:0] (ion (formula + adduct): [C41H70O5+NH4] 1+) |
| 261.1 Å² | – | – | CCCCCC/C=C\CCCCCCCC(=O)O[C@@H](CO)COC(=O)CCCCCCC/C=C\CCCCCCCCC [DG 19:1_16:1_0:0] (ion (formula + adduct): [C38H70O5+NH4] 1+) |
| – | 335.3 Å² | 335 Å² | CCCCC/C=C\C/C=C\CCCCCCCC(=O)O[C@H](COC(=O)CCCCCCC/C=C\CCCCCCCC)COC(=O)CCCCCCCCCCC/C=C\CCCCCCCC [TG 18:1_18:2_22:1] (ion (formula + adduct): [C61H110O6+NH4] 1+) |
| – | 319.5 Å² | – | CC/C=C\C/C=C\C/C=C\C/C=C\C/C=C\CCCC(=O)OC[C@@H](COC(=O)CCCCCCC/C=C\C/C=C\CCCCC)OC(=O)CCCCCCC/C=C\C/C=C\C/C=C\CC [TG 18:2_18:3_20:5] (ion (formula + adduct): [C59H94O6+NH4] 1+) |
| 297.2 Å² | – | – | CCCCCCCCCCCCC/C=C/[C@@H](O)[C@H](CO[C@@H]1OC(CO)[C@@H](O[C@@H]2OC(CO)[C@H](O)[C@H](O)C2O)[C@H](O)C1O)NC(=O)CCCCCCCCCCCCC (stereo partly drawn) [GlcCer d18:1_14:0@] (ion (formula + adduct): [C44H83NO13+H] 1+) |
| 320 Å² | – | 320.1 Å² | CCCCCC/C=C\CCCCCCCC(=O)OC[C@H](COC(=O)CCCCCCC/C=C\CCCCCCCC)OC(=O)CCCCCCC/C=C\CCCCCCCC [TG 16:1_18:1_18:1] (ion (formula + adduct): [C55H100O6+NH4] 1+) |
| 294.4 Å² | – | – | CC/C=C\C/C=C\C/C=C\C/C=C\C/C=C\CCCCCC(=O)O[C@H](COCCCCCCCCCCCCCCCC)COP(=O)([O-])OCC[N+](C)(C)C [PC O- 16:0@_22:5] (ion (formula + adduct): [C46H84NO7P+H] 1+) |
| – | 330.2 Å² | – | CCCCC/C=C\C/C=C\C/C=C\CCCCCCC(=O)OC[C@@H](COC(=O)CCCCCCC/C=C\CCCCCCCC)OC(=O)CCCCCCC/C=C\CCCCCCCC [TG 18:1_18:1_20:3] (ion (formula + adduct): [C59H104O6+NH4] 1+) |
| – | 312.7 Å² | 312.8 Å² | CCCCC/C=C\C/C=C\C/C=C\CCCCC(=O)OC[C@@H](COC(=O)CCCCCCCCCCCCCC)OC(=O)CCCCCCC/C=C\C/C=C\CCCCC [TG 15:0_18:2_18:3] (ion (formula + adduct): [C54H94O6+NH4] 1+) |
| 335.4 Å² | – | – | CCCCC/C=C\C/C=C\C/C=C\C/C=C\CCCCCC(=O)OC[C@@H](COC(=O)CCCCCCCCCCCCCCCCC)OC(=O)CCCCCCC/C=C\C/C=C\CCCCC [TG 18:0_18:2_22:4] (ion (formula + adduct): [C61H106O6+NH4] 1+) |
| 273.8 Å² | 273.7 Å² | – | CCCCC/C=C\C/C=C\C/C=C\C/C=C\CCCC(=O)O[C@H](COC(=O)CCCC/C=C\C/C=C\C/C=C\CCCCC)COP(=O)(O)OCCN [PE 18:3_20:4@] (ion (formula + adduct): [C43H72NO8P+H] 1+) |
| – | – | 295 Å² | CCCCC/C=C\C/C=C\C/C=C\CCCCC(=O)OC[C@H](COP(=O)([O-])OCC[N+](C)(C)C)OC(=O)CCCCCCC/C=C\CCCCCCCCC [PC 18:3@_19:1] (ion (formula + adduct): [C45H82NO8P+H] 1+) |
| 288.4 Å² | 289 Å² | – | CC/C=C\C/C=C\C/C=C\C/C=C\C/C=C\C/C=C\CCC(=O)O[C@H](COC(=O)CCCCCCC/C=C\CCCCCC)COP(=O)([O-])OCC[N+](C)(C)C [PC 16:1_22:6@] (ion (formula + adduct): [C46H78NO8P+H] 1+) |
| 324.5 Å² | – | 324.2 Å² | CCCCC/C=C\C/C=C\C/C=C\C/C=C\CCCC(=O)OC[C@@H](COC(=O)CCCCCCCCCCCCCCC)OC(=O)CCCCCCC/C=C\CCCCCCCC [TG 16:0_18:1_20:4] (ion (formula + adduct): [C57H100O6+NH4] 1+) |
| 306.1 Å² | 304.7 Å² | 304.5 Å² | CCCC/C=C\CCCCCCCC(=O)OC[C@H](COC(=O)CCCCCCC/C=C\C/C=C\CCCCC)OC(=O)CCCCCCC/C=C\CCCCCC [TG 14:1_16:1_18:2] (ion (formula + adduct): [C51H90O6+NH4] 1+) |

| TIMS collisional cross section (sample type: HeLa) | TIMS collisional cross section (sample type: Liver) | TIMS collisional cross section (sample type: plasma) | Compound |
| --- | --- | --- | --- |
| 281.6 Å² | – | – | CCCCC/C=C\C/C=C\C/C=C\C/C=C\C/C=C\CCC(=O)O[C@H](COCCCCCCCCCCCCCCCC)COP(=O)(O)OCCN [PE O- 16:0@_22:5] (ion (formula + adduct): [C43H78NO7P+H] 1+) |
| – | – | 300.7 Å² | CCCCC/C=C\C/C=C\C/C=C\C/C=C\CCCCCC(=O)O[C@H](COC(=O)CCCCCCCCCCCCCCCCC)COP(=O)([O-])OCC[N+](C)(C)C [PC 18:0@_22:4] (ion (formula + adduct): [C48H88NO8P+H] 1+) |
| 248.8 Å² | 249.1 Å² | 248.8 Å² | CCCCCCCCCCCCCCCCCC(=O)OC[C@@H](O)COP(=O)(O)O[C@H]1C(O)C(O)C(O)[C@@H](O)C1O (stereo partly drawn) [LPI 18:0] (ion (formula + adduct): [C27H53O12P+H] 1+) |
| – | 281.4 Å² | – | CC/C=C\C/C=C\C/C=C\C/C=C\C/C=C\CCCC(=O)OC[C@H](COP(=O)(O)OCCN)OC(=O)CCCCCCCCCCCCCCCCC [PE 20:5_18:0] (ion (formula + adduct): [C43H76NO8P+H] 1+) |
| 261.5 Å² | – | – | CC/C=C\C/C=C\C/C=C\C/C=C\C/C=C\CCCC(=O)O[C@@H](CO)COC(=O)CCCCCCCCCCCCCCC [DG 16:0_20:5_0:0] (ion (formula + adduct): [C39H66O5+NH4] 1+) |
| – | 297 Å² | – | CC/C=C\C/C=C\C/C=C\C/C=C\C/C=C\CCCCCC(=O)O[C@H](COC(=O)CCCCCCCCC/C=C\CCCCCC)COP(=O)([O-])OCC[N+](C)(C)C [PC 18:1@_22:5] (ion (formula + adduct): [C48H84NO8P+H] 1+) |
| 298.9 Å² | – | 299.3 ± 0.42 Å² | CCCCC/C=C\C/C=C\C/C=C\C/C=C\C/C=C\CCC(=O)O[C@H](COC(=O)CCCCCCCCCCCCCCCCC)COP(=O)([O-])OCC[N+](C)(C)C [PC 18:0@_22:5] (ion (formula + adduct): [C48H86NO8P+H] 1+) |
| 296.4 Å² | 296 Å² | 296.1 Å² | CCCCCC/C=C\CCCCCCCC(=O)OC[C@@H](COC(=O)CCCCCCCCCCCC)OC(=O)CCCCCCCCCCCCC [TG 13:0_14:0_16:1] (ion (formula + adduct): [C46H86O6+NH4] 1+) |
| – | 262.8 Å² | – | CCCCC/C=C\C/C=C\CCCCCCCC(=O)O[C@@H](CO)COC(=O)CCCCCCCCCCCCCCCC [DG 17:0_18:2_0:0] (ion (formula + adduct): [C38H70O5+NH4] 1+) |
| – | – | 328.45 ± 0.49 Å² | CCCCCCCC/C=C\CCCCCCCC(=O)OC[C@@H](COC(=O)CCCCCCCCCCCCCCCCC)OC(=O)CCCCCCC/C=C\CCCCCCCC [TG 18:0_18:1_18:1] (ion (formula + adduct): [C57H106O6+NH4] 1+) |
| – | 292.9 Å² | – | CCCCCCCCCCCCC/C=C/[C@@H](O)[C@H](CO[C@@H]1O[C@H](CO)[C@@H](O)C(O)C1O)NC(=O)CCCCCCCCCCCCCCCCCCC (stereo partly drawn) [GlcCer d18:1_20:0@] (ion (formula + adduct): [C44H85NO8+H] 1+) |
| 321.4 Å² | – | – | CC/C=C\C/C=C\C/C=C\C/C=C\C/C=C\C/C=C\CCC(=O)OC[C@@H](COC(=O)CCCCCCCCCCCCCCC)OC(=O)CCCCCCC/C=C\CCCCCC [TG 16:0_16:1_22:6] (ion (formula + adduct): [C57H96O6+NH4] 1+) |
| 281.9 Å² | – | – | CC/C=C\C/C=C\C/C=C\C/C=C\C/C=C\C/C=C\CCC(=O)OC[C@H](COP(=O)(O)OCCN)OC(=O)CCCCCCC/C=C\CCCCCCCC [PE 22:6_18:1@] (ion (formula + adduct): [C45H76NO8P+H] 1+) |
| – | 332.3 Å² | – | CCCCC/C=C\C/C=C\CCCCCCCC(=O)O[C@H](COC(=O)CCCCCCC/C=C\CCCCCCCC)COC(=O)CCCCCCCCCCCCCCCCCCC [TG 18:1_18:2_20:0] (ion (formula + adduct): [C59H108O6+NH4] 1+) |
| – | 277.5 Å² | – | CC/C=C\C/C=C\C/C=C\CCCCCCCC(=O)O[C@H](COC(=O)CCCCCCCCCCCCC)COP(=O)([O-])OCC[N+](C)(C)C [PC 14:0@_18:3] (ion (formula + adduct): [C40H74NO8P+H] 1+) |
| – | – | 319.9 Å² | CC/C=C\C/C=C\C/C=C\CCCCCCCC(=O)OC[C@@H](COC(=O)CCCCCCC/C=C\CCCCCCCC)OC(=O)CCCCCCC/C=C\C/C=C\CCCCC [TG 18:1_18:2_18:3] (ion (formula + adduct): [C57H98O6+NH4] 1+) |

| Compound | TIMS collisional cross section (sample type: HeLa) | TIMS collisional cross section (sample type: Liver) | TIMS collisional cross section (sample type: plasma) |
| --- | --- | --- | --- |
| CCCCC/C=C\C/C=C\C/C=C\C/C=C\CCCC(=O)O[C@H](COC(=O)CCCCCCCCCCCCCCC)COP(=O)(O)OCCN [PE 16:0_20:4] (ion (formula + adduct): [C41H74NO8P+H] 1+) | 276.1 ± 1.1 Å² | 277.25 ± 0.49 Å² | – |
